In patent US5569655A, “Substituted heterocyclylisoquinolinium salts and compositions and method of use thereof” (Sterling Winthrop Inc., priority 1994, dated 1996):

Experiments:
[1] = biological target: PCP recognition sites (PCP receptor); assay: [3H]TCP radioreceptor assay (binding to PCP recognition sites); design: species or system rat (male Sprague-Dawley; details: rat whole brain membranes, approx. 1 nM [3H]TCP; for Ki: mean of at least two determinations
Description: [^3 H]TCP Radioreceptor Assay
[^3 H]TCP binding to PCP recognition sites was performed as described by Vignon et al. Brain Research 1983, 280, 194-197. Male Sprague-Dawley rats were sacrificed by decapitation, and whole brains were homogenized in 10 volumes (wt/vol) of cold Tris-HCl buffer (50 mM, pH 7.7) using a Brinkmann Polytron (setting 6, 30 sec). The homogenate was centrifuged at 40,000×g for 10 min at 4° C. The supernatant was decanted, and the homogenization and centrifugation steps were repeated twice as described above. Following this, the pellet was resuspended in Tris-HCl (5 mM, pH 7.7) at a tissue concentration of 0.5-0.75 g/ml, and one ml aliquots were frozen at -70° C. until use. The binding characteristics for PCP recognition sites were not altered by the freezing of membrane suspensions.
On the day of the assay, membrane aliquots were thawed, resuspended in fresh 5 mM Tris-HCl buffer at a tissue concentration of 1 mg/ml, and stored on ice until use. Each assay tube contained 100 μl of [^3 H]TCP at a final concentration of approximately 1 nM, 100 μl of various concentrations of the compounds of interest, 500 μl of the tissue suspension and 300 μl of buffer to a final assay volume of 1 ml and a final protein concentration of 0.5 mg/tube. Non-specific binding was defined by addition of a final concentration of 100 μM PCP to blank tubes. All tubes were incubated at room temperature for 25 min before termination of the reaction by rapid filtration over Whatman GF/B glass fiber filters that had been presoaked in a solution of 0.5% polyethylenimine for at least 1 hr prior to use. Filters were washed with three 4 ml volumes of cold Tris buffer. Following addition of scintillation cocktail, the amount of bound radioactivity was determined by liquid scintillation spectrometry using a Beckman LS 5000TA liquid scintillation counter with an efficiency for tritium of approximately 55%. Inhibition constants (Ki values) were calculated using the EBDA/LIGAND program (McPherson, J. Pharmacol. Meth. 1985, 14, 213-228), purchased from Elsevier/Biosoft, Inc. The results are reported as Ki values (in nM) which are expressed as the mean of at least two separate determinations, or as a percent (%) inhibition of binding at 10 μM.
(§1) Table 4 summarizes the results obtained from the testing of representative compounds of the invention in the [^3 H]TCP radioreceptor assay as well as in the antagonism of NMDA-induced neurotoxicity in cultured neurons.

[2] = system: NMDA-induced neurotoxicity in cultured cortical neurons; assay: Antagonism of NMDA-induced neurotoxicity in cultured neurons; type: cell-based, mouse (Swiss-Webster); details: 500 μM NMDA for 30 minutes, LDH activity after 24 hours
Description: Antagonism of NMDA-induced Neurotoxicity in Cultured Neurons
Preparation of cultured cortical neurons
Pregnant, Swiss-Webster mice were obtained from Taconic Farms (Germantown, N.Y.) and sacrificed 16 days post conception. Fetuses were removed and placed in a sterile dish containing Hank's balanced salt solution (HBSS), pH 7.4. Brain cortices were dissected, meninges were removed, the tissue was minced and placed into a solution of HBSS containing 0.25% (w/v) trypsin at 37° C. for 15 minutes. Tissue was then triturated with a sterile pasteur pipet, diluted with minimal essential media (Gibco 330-1430), pH 7.4, supplemented with 10% horse serum, 10% fetal calf serum, 2 mM 1-glutamine, 21 mM d-glucose, 2.2 g/L sodium bicarbonate, 1000 U/ml penicillin, and 1,000 μg/ml streptomycin. Cells were plated onto Falcon primaria 96 well plates at a final density of 50,000 cells/well and incubated at 37° C. in the presence of 5% (v/v) carbon dioxide. After 5 days, plating media was replaced with maintenance media containing minimal essential media (Gibco 330-1430), pH 7.4, supplemented with 10% horse serum, 10% 1-glutamine, 21 mM D-glucose, 2.2 g/l sodium bicarbonate,1,000 U/ml penicillin, 1,000 μg/ml streptomycin, and 10 μM cytosine arabinoside. On days 7 and 10, media was replaced with maintenance media as above lacking the cytosine arabinoside. Experiments were conducted on day 13.
Neuroprotection Assessment
Day 13 cultured cortical neurons were washed twice with minimal essential media, pH 7.4 and then exposed for 30 minutes to 500 μM N-methyl-D-aspartic acid (NMDA) with or without varying concentrations of test agents. […] MK-801 and test agents were prepared in minimal essential media supplemented with 21 mM d-glucose and 2.2 g/L sodium bicarbonate (MEM). After 30 minutes, media was replaced with MEM alone. Exposure of neurons to test agents was limited to the NMDA treatment period. Twenty-four hours after removal of NMDA, an aliquot of media from each well was removed for assessment of cell injury by determining lactate dehydrogenase (LDH) activity by the method of Wroblewski and LaDue Proc. Soc. Exp. Biol. Med. 1955, 90, 210-213. The results are expressed as an IC50 (in nM) value (concentration causing 50% inhibition) for the antagonism of NMDA-induced neurotoxicity.
as §1

Structure (SMILES) | Ki [1] [nM] | further results
Cn1cc[n+]2c1C1c3ccccc3C2CC1(c1ccccc1)c1ccccc1 (stereo not shown) [3(b), 11,11-diphenyl-5,10-ethano-5,10-dihydro-1-methylimidazo[1,2-b]isoquinolin-4-ium chloride] | 13 | 
Oc1cccc2c1C1c3scc[n+]3C2CC1(c1ccoc1)c1ccoc1 (stereo not shown) [206(f), 11,11-di(3-furyl)-9-hydroxy-5,10-ethano-5,10-dihydrothiazolo[3,2-b]isoquinolinium chloride] | 1.87 | IC50 ([2]; Mus musculus, Cortical neurone): 20.9 nM
CCOC1(OCC)C2c3ccccc3C([n+]3ccn(C)c32)C1(C)C (stereo not shown) [7(F), 11,11-diethoxy-12,12-dimethyl-5,10-ethano-5,10-dihydro-1-methylimidazo[1,2-b]isoquinolin-4-ium chloride] | 8.2 | IC50 ([2]; Mus musculus, Cortical neurone): 53 nM
c1ccc(C2(c3ccccc3)CC3c4ccccc4C2c2scc[n+]23)cc1 (stereo not shown) [2(b), 11,11-diphenyl-5,10-ethano-5,10-dihydrothiazolo[1,2-b]isoquinolin-4-ium chloride] | 4.2 | 
c1ccc2c(c1)C1CC(c3ccoc3)(c3ccoc3)C2c2n(Cc3ccc4ccccc4c3)cc[n+]21 (stereo not shown) [204(e), 11,11-di(3-furyl)-5,10-ethano-5,10-dihydro-1-(2-naphthyl-methyl)imidazo[1,2-b]isoquinolin-4-ium chloride] | 330 | 
c1ccc(Cn2cc[n+]3c2C2c4ccccc4C3CC2(c2ccoc2)c2ccoc2)cc1 (stereo not shown) [2(F), 11,11-di(3-furyl)-5,10-ethano-5,10-dihydro-1-benzylimidazo[1,2-b]isoquinolin-4-ium chloride] | 7.7 | 
c1ccc2c(c1)C1CC(c3ccoc3)(c3ccoc3)C2c2n(Cc3cccc4ccccc34)cc[n+]21 (stereo not shown) [205(e), 11,11-di(3-furyl)-5,10-ethano-5,10-dihydro-1(1-naphthylmethyl)imidazo[1,2-b]isoquinolin-4-ium chloride] | 329 | 
Cc1c[n+]2c(s1)C1c3ccccc3C2CC1(c1ccoc1)c1ccoc1 (stereo not shown) [16(E), 11,11-di(3-furyl)-5,10-ethano-5,10-dihydro-2-methylthiazolo[3,2-b]isoquinolinium chloride] | 11 | IC50 ([2]; Mus musculus, Cortical neurone): 270 nM
CCOC1(OCC)C2c3ccccc3C([n+]3ccn(Cc4ccccc4)c32)C1(C)C (stereo not shown) [8(b), 11,11-diethoxy-12,12-dimethyl-5,10-ethano-5,10-dihydro-1-benzylimidazo[1,2-b]isoquinolin-4-ium chloride] | 10 | 
Cn1nc[n+]2c1C1c3ccccc3C2CC1(c1ccoc1)c1ccoc1 (stereo not shown) [14(E), 11,11-di(3-furyl)-5,10-ethano-5,10-dihydro-1-methyl-1,2,4-triazolo[1,2-b]isoquinolin-4-ium chloride] | 14 | 
c1ccc(C(c2ccccc2)n2cc[n+]3c2C2c4ccccc4C3CC2(c2ccoc2)c2ccoc2)cc1 (stereo not shown) [203(d), 11,11-di(3-furyl)-5,10-ethano-5,10-dihydro-1-(1,1-diphenylmethyl)imidazo[1,2-b]isoquinolin-4-ium hexafluorophosphate] | 306 | 
c1ccc(CCCn2cc[n+]3c2C2c4ccccc4C3CC2(c2ccoc2)c2ccoc2)cc1 (stereo not shown) [200(g), 11,11-di(3-furyl)-5,10-ethano-5,10-dihydro-1-(3-phenylpropyl)imidazo[1,2-b]isoquinolin-4-ium chloride] | 67.8 | 
c1ccc2c(c1)C1CC(c3ccoc3)(c3ccoc3)C2c2scc[n+]21 (racemic) [4(e), 11,11-di(3-furyl)-5,10-ethano-5,10-dihydrothiazolo[3,2-b]isoquinolinium chloride] | 2.9 | IC50 ([2]; Mus musculus, Cortical neurone): 50 nM
COc1cccc2c1C1c3scc[n+]3C2CC1(c1ccoc1)c1ccoc1 (stereo not shown) [207(b), 11,11-di(3-furyl)-9-methoxy-5,10-ethano-5,10-dihydrothiazolo[3,2-b]isoquinolinium chloride] | 14.1 | 
c1ccc2c(c1)C1CC(c3ccoc3)(c3ccoc3)C2c2scc[n+]21 (single isomer, unassigned; (+)) [5(e), (+)-11,11-di(3-furyl)-5,10-ethano-5,10-dihydrothiazolo[3,2-b]isoquinolinium chloride] | 2 | IC50 [2]: 20 nM
COc1ccc(Cn2ccc(C3(c4ccn(Cc5ccc(OC)cc5)n4)CC4c5ccccc5C3c3scc[n+]34)n2)cc1 (stereo not shown) [18(e), 11,11-di-[(1-p-methoxybenzyl)-pyrazol-3-yl)]-5,10-ethano-5,10-dihydrothiazolo[3,2-b]isoquinolinium perchlorate] |  | [3H]TCP percent inhibition of binding @ 10 μM ([1]; 10 μM): 6%
c1ccc(Cn2cc[n+]3c2C2c4ccccc4C3CC2(c2cc[nH]n2)c2cc[nH]n2)cc1 (stereo not shown) [202(c), 11,11-di(pyrazol-3-yl)-5,10-ethano-5,10-dihydro-1-benzylimidazo-[1,2-b]isoquinolin-4-ium chloride] | 36.5 | 
CCOC1(OCC)C2c3ccccc3C([n+]3cnn(C)c32)C1(C)C (stereo not shown) [10(b), 11,11-diethoxy-12,12-dimethyl-5,10-ethano-5,10-dihydro-1-methyl-1,2,4-triazolo[1,2-b]isoquinolin-4-ium chloride] | 30 | 
c1ccc2c(c1)C1CC(c3ccoc3)(c3ccoc3)C2c2scc[n+]21 (single isomer, unassigned; (-)) [5(c), (-)-11,11-di(3-furyl)-5,10-ethano-5,10-dihydrothiazolo[3,2-b]isoquinolinium chloride] | 5 | IC50 ([2]; Mus musculus, Cortical neurone): 32 nM
O=C1CC(C2(C3=COC(=O)C3)CC3c4ccccc4C2c2scc[n+]23)=CO1.[O-][Cl+3]([O-])([O-])[O-] (stereo not shown) [Example 17, 11,11-di-(5-oxo-4,5-dihydro-3-furyl)-5,10-ethano-5,10-dihydrothiazolo[3,2-b]isoquinolinium perchlorate] | 640 | 
c1ccc(-n2cc[n+]3c2C2c4ccccc4C3CC2(c2ccoc2)c2ccoc2)cc1 (stereo not shown) [199(f), 11,11-di(3-furyl)-5,10-ethano-5,10-dihydro-1-phenylimidazo[1,2-b]isoquinolin-4-ium chloride] | 52.2 | 
CCCCn1cc[n+]2c1C1c3ccccc3C2CC1(c1ccoc1)c1ccoc1 (stereo not shown) [201(f), 11,11-di(3-furyl)-5,10-ethano-5,10-dihydro-1-butylimidazo-[1,2-b]isoquinolin-4-ium chloride] | 36.3 | 
c1ccc(Cn2cc[n+]3c2C2c4ccccc4C3CC2(c2ccccc2)c2ccccc2)cc1 (stereo not shown) [9(b), 11,11-diphenyl-5,10-ethano-5,10-dihydro-1-benzylimidazo[1,2-b]isoquinolin-4-ium chloride] | 89 | 
COc1ccc(Cn2cc[n+]3c2C2c4ccccc4C3CC2(c2ccoc2)c2ccoc2)cc1 (stereo not shown) [19(F), 11,11-di(3-furyl)-5,10-ethano-5,10-dihydro-1-(p-methoxybenzyl)imidazo[1,2-b]isoquinolin-4-ium chloride] | 30 | 
Cn1nc[n+]2c1C1c3ccccc3C2CC1(c1ccccc1)c1ccccc1 (stereo not shown) [11(g), 11,11-diphenyl-5,10-ethano-5,10-dihydro-1-methyl-1,2,4-triazo[1,2-b]isoquinolin-4-ium chloride] | 35 | 
